From patent US12594276B2, “Inhibitors of human immunodeficiency virus replication” (ViiV Healthcare UK (No.5) Limited, priority 2024, dated 2026)
Like-named read-outs stand apart in the source and are kept apart here.

What was measured:
[1] = system: recombinant NL4-3 virus (nef section replaced with Renilla luciferase gene) in MT-2 cells; assay: HIV cell culture assay (antiviral activity, luciferase readout); format: cell-based; conditions: Renilla, NL43, MT-2 cells infected for 4-5 days with recombinant NL4-3 Renilla luciferase virus
Outline: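 Read-out: Renilla luciferase (live-cell substrate) in infected MT-2 cells after 4-5 d with serial compound dilutions. Virus from 293T transfection of the proviral clone, titered by luciferase in MT-2. EC50 via median effect equation fit.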

[2] = Compound cytotoxicity, XTT-based colorimetric assay; format: cell-based; conditions: human
Outline: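 Uninfected MT2 cells were treated with compound under the same protocol as the antiviral assay. Viability was read on day 4 with an XTT colorimetric assay, from which CC50 values were derived.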

[3] = uninfected MT2 cells, day 4, XTT, read-out: CC50

Cc1cc(C2(F)CCC(F)(F)CC2)nc2nc([C@H](Cc3cc(F)cc(F)c3)NC(=O)Cn3nc(C(F)F)c4c3C(F)(F)[C@@H]3C[C@H]43)n(-c3ccc(Cl)c4c(NS(C)(=O)=O)nn([C@@H](C)CN5C[C@H](F)C[C@H](F)C5)c34)c(=O)c12 (atropisomer, axis not shown; (P)) [Example 753, N-[(1S)-1-[(3P)-3-{4-chloro-1-[(2S)-1-[(3R,5S)-3,5-difluoropiperidin-1-yl]propan-2-yl]-3-methanesulfonamido-1H-indazol-7-yl}-5-methyl-4-oxo-7-(1,4,4-trifluorocyclohexyl)-3H,4H-pyrido[2,3-d]pyrimidin-2-yl]-2-(3,5-difluorophenyl)ethyl]-2-[(2S,4R)-9-(difluoromethyl)-5,5-difluoro-7,8-diazatricyclo[4.3.0.0^2,^4]nona-1(6),8-dien-7-yl]acetamide]
EC50 [1]: 0.026 nM | CC50 at 4 days [2, 3]: > 20 nM

Cc1cc(C2CCC(F)(F)CC2)nc2nc([C@H](Cc3cc(F)cc(F)c3)NC(=O)Cn3nc(C4CC4)c4c3C[C@@H]3C[C@H]43)n(-c3ccc(Cl)c4c(NS(C)(=O)=O)nn(CCN5C[C@@H](F)C[C@H](F)C5)c34)c(=O)c12 (atropisomer, axis not shown; (P)) [Example 444, N-[(1S)-1-[(3P)-3-(4-chloro-1-{2-[(3S,5S)-3,5-difluoropiperidin-1-yl]ethyl}-3-methanesulfonamido-1H-indazol-7-yl)-7-(4,4-difluorocyclohexyl)-5-methyl-4-oxo-3H,4H-pyrido[2,3-d]pyrimidin-2-yl]-2-(3,5-difluorophenyl)ethyl]-2-[(2S,4S)-9-cyclopropyl-7,8-diazatricyclo[4.3.0.0^2,^4]nona-1(6),8-dien-7-yl]acetamide]
EC50 [1]: 0.009 nM | CC50 at 4 days [2, 3]: > 20 nM

Cc1cc(C2CCC(F)(F)CC2)nc2nc([C@H](Cc3cc(F)cc(F)c3)NC(=O)Cn3nc(C4CC4)c4c3C[C@@H]3C[C@H]43)n(-c3ccc(Cl)c4c(NS(C)(=O)=O)nn(CCN5[C@@H]6CC[C@H]5CC(F)(F)C6)c34)c(=O)c12 (atropisomer, axis not shown; (P)) [Example 245]
EC50 [1]: 0.019 nM | CC50 at 4 days [2]: > 50 nM

CC1(C)CN(CCn2nc(NS(C)(=O)=O)c3c(Cl)ccc(-n4c([C@H](Cc5cc(F)cc(F)c5)NC(=O)Cn5nc(C(F)F)c6c5C(F)(F)[C@@H]5C[C@H]65)nc5nc(C6CCC(F)(F)CC6)cc(CF)c5c4=O)c32)CC(C)(C)O1 (atropisomer, axis not shown; (P)) [Example 513, N-[(1S)-1-[(3P)-3-{4-chloro-3-methanesulfonamido-1-[2-(2,2,6,6-tetramethylmorpholin-4-yl)ethyl]-1H-indazol-7-yl}-7-(4,4-difluorocyclohexyl)-5-(fluoromethyl)-4-oxo-3H,4H-pyrido[2,3-d]pyrimidin-2-yl]-2-(3,5-difluorophenyl)ethyl]-2-[(2S,4R)-9-(difluoromethyl)-5,5-difluoro-7,8-diazatricyclo[4.3.0.0^2,^4]nona-1(6),8-dien-7-yl]acetamide]
EC50 [1]: 0.017 nM | CC50 at 4 days [2, 3]: > 20 nM

Cc1cc(C2(F)CCC(F)(F)CC2)nc2nc([C@H](Cc3cc(F)cc(F)c3)NC(=O)Cn3nc(C4CC4)c4c3C[C@@H]3C[C@H]43)n(-c3ccc(Cl)c4c(NS(C)(=O)=O)nn(CCN5CCOC(C)(C)C5)c34)c(=O)c12 (atropisomer, axis not shown; (P)) [Example 585, N-[(1S)-1-[(3P)-3-{4-chloro-1-[2-(2,2-dimethylmorpholin-4-yl)ethyl]-3-methanesulfonamido-1H-indazol-7-yl}-5-methyl-4-oxo-7-(1,4,4-trifluorocyclohexyl)-3H,4H-pyrido[2,3-d]pyrimidin-2-yl]-2-(3,5-difluorophenyl)ethyl]-2-[(2S,4S)-9-cyclopropyl-7,8-diazatricyclo[4.3.0.0^2,^4]nona-1(6),8-dien-7-yl]acetamide]
EC50 [1]: 0.012 nM | CC50 at 4 days [2, 3]: > 20 nM

Cc1cc(C2(F)CCC(F)(F)CC2)nc2nc([C@H](Cc3cc(F)cc(F)c3)NC(=O)Cn3nc(C4CC4)c4c3C[C@@H]3C[C@H]43)n(-c3ccc(Cl)c4c(NS(C)(=O)=O)nn(CCN5CCO[C@H](C(C)C)C5)c34)c(=O)c12 (atropisomer, axis not shown; (P)) [Example 582, N-[(1S)-1-[(3P)-3-(4-chloro-3-methanesulfonamido-1-{2-[(2R)-2-(propan-2-yl)morpholin-4-yl]ethyl}-1H-indazol-7-yl)-5-methyl-4-oxo-7-(1,4,4-trifluorocyclohexyl)-3H,4H-pyrido[2,3-d]pyrimidin-2-yl]-2-(3,5-difluorophenyl)ethyl]-2-[(2S,4S)-9-cyclopropyl-7,8-diazatricyclo[4.3.0.0^2,^4]nona-1(6),8-dien-7-yl]acetamide]
EC50 [1]: 0.017 nM | CC50 at 4 days [2, 3]: > 20 nM

CS(=O)(=O)Nc1nn(CCN2CCC(F)(F)C2)c2c(-n3c([C@H](Cc4cc(F)cc(F)c4)NC(=O)Cn4nc(C5CC5)c5c4C[C@@H]4C[C@H]54)nc4nc(C5CCC(F)(F)CC5)ccc4c3=O)ccc(Cl)c12 (atropisomer, axis not shown; (P)) [Example 24, N-[(1S)-1-[(3P)-3-{4-chloro-1-[2-(3,3-difluoropyrrolidin-1-yl)ethyl]-3-methanesulfonamido-1H-indazol-7-yl}-7-(4,4-difluorocyclohexyl)-4-oxo-3H,4H-pyrido[2,3-d]pyrimidin-2-yl]-2-(3,5-difluorophenyl)ethyl]-2-[(2S,4S)-9-cyclopropyl-7,8-diazatricyclo[4.3.0.0^2,^4]nona-1(6),8-dien-7-yl]acetamide]
EC50 [1]: 0.007 nM | CC50 at 4 days [2, 3]: > 50 nM

COCCCn1nc(NS(C)(=O)=O)c2c(Cl)ccc(-n3c([C@H](Cc4cc(F)cc(F)c4)NC(=O)Cn4nc(C(F)F)c5c4C(F)(F)[C@@H]4C[C@H]54)nc4nc(C5CCC(F)(F)CC5)cc(NCCN5CCCC5)c4c3=O)c21 (atropisomer, axis not shown; (P)) [Example 429, N-[(1S)-1-[(3P)-3-[4-chloro-3-methanesulfonamido-1-(3-methoxypropyl)-1H-indazol-7-yl]-7-(4,4-difluorocyclohexyl)-4-oxo-5-{[2-(pyrrolidin-1-yl)ethyl]amino}-3H,4H-pyrido[2,3-d]pyrimidin-2-yl]-2-(3,5-difluorophenyl)ethyl]-2-[(2S,4R)-9-(difluoromethyl)-5,5-difluoro-7,8-diazatricyclo[4.3.0.0^2,^4]nona-1(6),8-dien-7-yl]acetamide]
EC50 [1]: 0.019 nM | CC50 at 4 days [2, 3]: > 20 nM

COCCCn1nc(NS(C)(=O)=O)c2c(Cl)ccc(-n3c([C@H](Cc4cc(F)cc(F)c4)NC(=O)Cn4nc(C(F)F)c5c4C(F)(F)[C@@H]4C[C@H]54)nc4nc(C5(F)CCC(F)(F)CC5)cc(CN5C[C@@H](C)O[C@@H](C)C5)c4c3=O)c21 (atropisomer, axis not shown; (P)) [Example 600, N-[(1S)-1-[(3P)-3-[4-chloro-3-methanesulfonamido-1-(3-methoxypropyl)-1H-indazol-7-yl]-5-{[(2R,6S)-2,6-dimethylmorpholin-4-yl]methyl}-4-oxo-7-(1,4,4-trifluorocyclohexyl)-3H,4H-pyrido[2,3-d]pyrimidin-2-yl]-2-(3,5-difluorophenyl)ethyl]-2-[(2S,4R)-9-(difluoromethyl)-5,5-difluoro-7,8-diazatricyclo[4.3.0.0^2,^4]nona-1(6),8-dien-7-yl]acetamide]
EC50 [1]: 0.008 nM | CC50 at 4 days [2, 3]: > 20 nM

Cc1cc(C2(F)CCC(F)(F)CC2)nc2nc([C@H](Cc3cc(F)cc(F)c3)NC(=O)Cn3nc(C(F)F)c4c3C(F)(F)[C@@H]3C[C@H]43)n(-c3ccc(Cl)c4c(NS(C)(=O)=O)nn(C[C@@H](C)N5C[C@H](F)C[C@H](F)C5)c34)c(=O)c12 (atropisomer, axis not shown; (P)) [Example 697, N-[(1S)-1-[(3P)-3-{4-chloro-1-[(2R)-2-[(3R,5S)-3,5-difluoropiperidin-1-yl]propyl]-3-methanesulfonamido-1H-indazol-7-yl}-5-methyl-4-oxo-7-(1,4,4-trifluorocyclohexyl)-3H,4H-pyrido[2,3-d]pyrimidin-2-yl]-2-(3,5-difluorophenyl)ethyl]-2-[(2S,4R)-9-(difluoromethyl)-5,5-difluoro-7,8-diazatricyclo[4.3.0.0^2,^4]nona-1(6),8-dien-7-yl]acetamide]
EC50 [1]: 0.009 nM | CC50 at 4 days [2, 3]: > 20 nM

CCOCCn1nc(NS(C)(=O)=O)c2c(Cl)ccc(-n3c([C@H](Cc4cc(F)cc(F)c4)NC(=O)Cn4nc(C(F)F)c5c4C(F)(F)[C@@H]4C[C@H]54)nc4nc(C5CCC(F)(F)CC5)cc(C(F)F)c4c3=O)c21 (atropisomer, axis not shown; (P)) [Example 150, N-[(1S)-1-[(3P)-3-[4-chloro-1-(2-ethoxyethyl)-3-methanesulfonamido-1H-indazol-7-yl]-7-(4,4-difluorocyclohexyl)-5-(difluoromethyl)-4-oxo-3H,4H-pyrido[2,3-d]pyrimidin-2-yl]-2-(3,5-difluorophenyl)ethyl]-2-[(2S,4R)-9-(difluoromethyl)-5,5-difluoro-7,8-diazatricyclo[4.3.0.0^2,^4]nona-1(6),8-dien-7-yl]acetamide]
EC50 [1]: 0.017 nM | CC50 at 4 days [2, 3]: > 50 nM

COCCCn1nc(NS(C)(=O)=O)c2c(Cl)ccc(-n3c([C@H](Cc4cc(F)cc(F)c4)NC(=O)Cn4nc(C(F)F)c5c4C(F)(F)[C@@H]4C[C@H]54)nc4nc(C5CCC(F)(F)CC5)cc(CN5C[C@@H](F)[C@@H](F)C5)c4c3=O)c21 (atropisomer, axis not shown; (P)) [Example 530, N-[(1S)-1-[(3P)-3-[4-chloro-3-methanesulfonamido-1-(3-methoxypropyl)-1H-indazol-7-yl]-7-(4,4-difluorocyclohexyl)-5-{[(3R,4S)-3,4-difluoropyrrolidin-1-yl]methyl}-4-oxo-3H,4H-pyrido[2,3-d]pyrimidin-2-yl]-2-(3,5-difluorophenyl)ethyl]-2-[(2S,4R)-9-(difluoromethyl)-5,5-difluoro-7,8-diazatricyclo[4.3.0.0^2,^4]nona-1(6),8-dien-7-yl]acetamide]
EC50 [1]: 0.008 nM | CC50 at 4 days [2, 3]: > 20 nM
